These are literature values, as cited in US20100055181A1, “CONTROLLED RELEASE DOSAGE FORMS OF ZOLPIDEM” (LUPIN LIMITED, priority 2006, published 2010).

For the series the following is noted: hypnotic action, oral, conventional forms.

As to `Cc1ccc(-c2nc3ccc(C)cn3c2CC(=O)N(C)C)cc1` [zolpidem], the duration of action entry was “up to 6 hours”.
